Experimental data published in publication PMC5686591, “Identification and Characterization of the Major Porin of Desulfovibrio vulgaris Hildenborough” (Journal of Bacteriology, 2017).

Biological target: T1, DVU0799 (Nitratidesulfovibrio vulgaris, UniProt Q72DY0)
T1 construct: gene DVU_0799; native protein purified from wild-type outer membranes (octyl glucoside), untagged; monomer about 50 kDa, homotrimer; reconstituted in proteoliposomes
T1 sequence (Q72DY0 24-466): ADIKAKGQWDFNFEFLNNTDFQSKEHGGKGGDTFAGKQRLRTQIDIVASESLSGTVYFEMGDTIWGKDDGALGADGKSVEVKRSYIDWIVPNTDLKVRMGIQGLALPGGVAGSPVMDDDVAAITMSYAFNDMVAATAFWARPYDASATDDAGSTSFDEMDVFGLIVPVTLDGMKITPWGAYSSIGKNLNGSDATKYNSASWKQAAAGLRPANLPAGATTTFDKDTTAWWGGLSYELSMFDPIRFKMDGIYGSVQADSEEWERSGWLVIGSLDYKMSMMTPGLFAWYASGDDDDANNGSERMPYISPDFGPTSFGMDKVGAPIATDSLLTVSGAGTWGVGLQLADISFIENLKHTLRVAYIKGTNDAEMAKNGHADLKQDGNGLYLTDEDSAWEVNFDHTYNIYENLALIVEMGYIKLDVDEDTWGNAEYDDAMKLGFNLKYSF
Experiment: liposome swelling assay (OD400), reconstituted proteoliposomes
Type: biochemical
Conditions: pore permeation (passive diffusion)

Compound | relative permeability (relative to L-arabinose, 9 mM solute, 4 mM sodium NAD, 1 mM imidazole-NAD, pH 6.0) | relative permeability (scaling reference of the assay, about 20 mM solute)
O=C(O)[C@H](O)[C@@H](O)[C@H](O)[C@H](O)CO [D-gluconate] | purified DVU0799 were also surveyed for their permeability to two sugar acids, D-gluconate | 
OC1OC[C@H](O)[C@H](O)[C@H]1O (stereo partly drawn) [L-arabinose] |  | the permeability profile begins with that for L-arabinose at the upper limit
